Earlier results, collected in patent US6777002B1, “Process for microencapsulation of water soluble substances” (Debio Recherche Pharmaceutique S.A., priority 1999, dated 2004).

Settings: in water at 20-25° C.

Structure (SMILES)	solubility in water
ClCCl [dichloromethane]	1.32 % (by weight)
CCOC(C)=O [ethyl acetate]	8.70 % (by weight)
